In patent US8404618B2, “Herbicidal composition” (priority 2004, dated 2013):

Columns and labels:
Assay type in all cases: in vivo
wheat = assay: Pre-emergent test on wheat (safener action); settings: after 14 days, average value of two repetitions
Experimental: The test plants are sown in 48 well plates in a growth chamber. A sterilized standard earth is used as the culture substrate. In a pre-emergent stage, the herbicides are applied both by themselves and in a mixture with safeners to the soil surface. The application is carried out with an aqueous suspension of the test substances, prepared from a 25% wettable powder (Example F3,b), to achieve a field equivalent of 375 l/ha. The tests are evaluated after 14 days (100%=plants completely dead; 0%=no phytotoxic action on the plants).

maize (Marista 11f) = assay: Post-emergent test on maize (safener action); settings: post-emergent (GS 11), evaluated after 28 days
Experimental: The test plants are sown in containers under glasshouse conditions. A standard earth is used as the culture substrate. In a maize growth stage of one leaf (GS 11), the herbicides are applied both by themselves and in a mixture with safeners to the soil and leaf surface. The application is carried out with an aqueous suspension of the test substances, prepared from a 25% wettable powder (Example F3,b) or a suspension concentrate (Example F8), to achieve a field equivalent of 200 l/ha. The tests are evaluated after 28 days (100%=plants completely dead; 0%=no phytotoxic action on the plants).

maize = assay: Pre-emergent test on maize (safener action); settings: evaluated after 14 days
Experimental: The test plants are sown in seed troughs under greenhouse conditions. A standard earth is used as the culture substrate. In a pre-emergent stage, the herbicides are applied both by themselves and in a mixture with safeners to the soil surface. […] The tests are evaluated after 14 days (100%=plants completely dead; 0%=no phytotoxic action on the plants).

| SMILES | phytotoxic action on the plants (100%=plants completely dead; 0%=no phytotoxic action) (wheat; herbicide alone 100 g/ha) [%] | phytotoxic action on the plants (100%=plants completely dead; 0%=no phytotoxic action) (maize (Marista 11f); herbicide alone 37.5 g/ha) [%] | phytotoxic action on the plants (100%=plants completely dead; 0%=no phytotoxic action) (maize (Marista 11f); herbicide alone 75 g/ha) [%] | phytotoxic action on the plants (100%=plants completely dead; 0%=no phytotoxic action) (maize (Marista 11f); herbicide alone 150 g/ha) [%] | phytotoxic action on the plants (100%=plants completely dead; 0%=no phytotoxic action) (wheat; herbicide alone 200 g/ha) [%] | phytotoxic action on the plants (100%=plants completely dead; 0%=no phytotoxic action) (maize; herbicide alone 250 g/ha) [%] | phytotoxic action on the plants (100%=plants completely dead; 0%=no phytotoxic action) (maize; herbicide alone 500 g/ha) [%] | phytotoxic action on the plants (100%=plants completely dead; 0%=no phytotoxic action) (maize; herbicide alone 1000 g/ha) [%] |
| --- | --- | --- | --- | --- | --- | --- | --- | --- |
| Cn1nc(C(F)(F)F)c(C[S+]([O-])C2=NOC(C)(C)C2)c1OC(F)F (stereo not drawn) [Comp. 1.57] | 90 | – | – | – | – | – | – | – |
| Cn1nc(C(F)(F)F)c(CS(=O)(=O)C2=NOC(C)(C)C2)c1OC(F)F [Comp. 1.27, 3-(5-difluoromethoxy-1-methyl-3-trifluoromethyl-1H-pyrazol-4-ylmethylsulfonyl)-5,5-dimethyl-4,5-dihydroisoxazole] | 25 | 0 | 10 | 40 | 50 | – | – | – |
| CC1(C)CC(S(=O)(=O)Cc2c(F)cccc2F)=NO1 [Comp. 1.41] | – | – | – | – | – | 30 | 70 | 80 |
